Measurements reported in US20140235627A1, “ß2-ADRENOCEPTOR AGONIST FOR IMPROVEMENT OF EXERCISE TOLERANCE” (BOEHRINGER INGELHEIM INTERNATIONAL GMBH, priority 2012, published 2014).

Legend:
Format in all cases: in vivo, human
patients with COPD [1] = test: Intensity of breathing discomfort (Borg Scale) at isotime during exercise (studies 1222.37 and 1222.38); settings: after 6 weeks
From the text: (§1) Constant work rate cycle ergometry at 75% Wcap was selected as the exercise modality based on previous experience with other bronchodilators. The primary efficacy endpoint was endurance time, while IC at isotime and the intensity of breathing discomfort at isotime were key secondary endpoints. Isotime was defined as the endurance time of the constant work rate exercise test of shortest duration, which ensured that IC and intensity of breathing discomfort were compared across treatments at the same time of exercise for an individual.

patients with COPD [2] = test: Rescue medication use (electronic diary) in 48-week pivotal studies; settings: for Reduction in daytime rescue bronchodilator use compared to placebo / Reduction in nighttime rescue bronchodilator use compared to placebo: at 48 weeks
Description: Additionally to that rescue medication use was assessed in 48-week pivotal studies using an electronic diary, indicated whether the bronchodilating effects of olodaterol provided sufficient symptomatic benefit to reduce the need for albuterol to control symptoms on a daily and nightly basis.

patients with COPD [3] = test: Endurance time during constant work rate cycle ergometry at 75% Wcap (studies 1222.37 and 1222.38); settings: after 6 weeks
From the text: While, the FDA COPD draft guidance for industry notes that—assessment of exercise capacity by treadmill or cycle ergometry combined with lung volume assessment potentially can be a tool to assess efficacy of a drug (Guidance for industry: chronic obstructive pulmonary disease: developing drugs for treatment (draft guidance, November 2007). Rockville: U.S. Department of Health and Human Services, Food and Drug Administration, Center for Drug Evaluation and Research (CDER) (2007)) two studies (1222.37 & 1222.38) were designed to evaluate the effects of olodaterol on improvement of exercise.
as §1
At baseline, the geometric mean exercise endurance time during constant work rate cycle ergometry to symptom limitation at 75% of maximal work capacity was 414 seconds (6 minutes 54 seconds) in study 1222.37 and 374 seconds (6 minutes 14 seconds) in study 1222.38.

patients with COPD [4] = test: Inspiratory capacity (IC) at isotime during exercise (studies 1222.37 and 1222.38); settings: after 6 weeks
From the text: as §1

[5] = study 1222.37, olodaterol 5 μg, listed as olodaterol
[6] = study 1222.37, olodaterol 10 μg
[7] = study 1222.37, olodaterol 10 μg, listed as olodaterol
[8] = study 1222.38, olodaterol 5 μg, listed as olodaterol
[9] = study 1222.38, olodaterol 10 μg
[10] = study 1222.38, olodaterol 10 μg, listed as olodaterol

COc1ccc(CC(C)(C)NC[C@H](O)c2cc(O)cc3c2OCC(=O)N3)cc1 [Olodaterol]
Intensity of Breathing Discomfort at Isotime During Exercise, Treatment mean (SE) (patients with COPD [1]; study 1222.37, olodaterol 5 μg): 5.104 (0.182) Borg Scale
Intensity of Breathing Discomfort at Isotime, Difference to placebo Mean (SE) (patients with COPD [1]; study 1222.37, olodaterol 5 μg): −0.766 (0.223) Borg Scale
Intensity of Breathing Discomfort at Isotime, Difference to placebo Mean (SE) (patients with COPD [1]; [5]): statistically significant reduction
Intensity of Breathing Discomfort at Isotime During Exercise, Treatment mean (SE) (patients with COPD [1]; [6]): 5.235 (0.185) Borg Scale
Intensity of Breathing Discomfort at Isotime, Difference to placebo Mean (SE) (patients with COPD [1]; [6]): −0.634 (0.225) Borg Scale
Intensity of Breathing Discomfort at Isotime, Difference to placebo Mean (SE) (patients with COPD [1]; [7]): statistically significant reduction
Intensity of Breathing Discomfort at Isotime During Exercise, Treatment mean (SE) (patients with COPD [1]; study 1222.38, olodaterol 5 μg): 5.250 (0.180) Borg Scale
Intensity of Breathing Discomfort at Isotime, Difference to placebo Mean (SE) (patients with COPD [1]; study 1222.38, olodaterol 5 μg): −0.336 (0.214) Borg Scale
Intensity of Breathing Discomfort at Isotime, Difference to placebo Mean (SE) (patients with COPD [1]; [8]): no significant differences
Intensity of Breathing Discomfort at Isotime During Exercise, Treatment mean (SE) (patients with COPD [1]; [9]): 5.520 (0.181) Borg Scale
Intensity of Breathing Discomfort at Isotime, Difference to placebo Mean (SE) (patients with COPD [1]; [9]): −0.066 (0.214) Borg Scale
Intensity of Breathing Discomfort at Isotime, Difference to placebo Mean (SE) (patients with COPD [1]; [10]): no significant differences
Reduction in daytime rescue bronchodilator use compared to placebo (patients with COPD [2]; 1222.11/12, 5 μg): −0.455 units
Reduction in nighttime rescue bronchodilator use compared to placebo (patients with COPD [2]; 1222.11/12, 5 μg): −0.497 units
Reduction in daytime rescue bronchodilator use compared to placebo (patients with COPD [2]; 1222.11/12, 10 μg): −0.574 units
Reduction in nighttime rescue bronchodilator use compared to placebo (patients with COPD [2]; 1222.11/12, 10 μg): −0.775 units
Reduction in daytime rescue bronchodilator use compared to placebo (patients with COPD [2]; 1222.13/14, 5 μg): −0.269 units
Reduction in nighttime rescue bronchodilator use compared to placebo (patients with COPD [2]; 1222.13/14, 5 μg): −0.530 units
Reduction in daytime rescue bronchodilator use compared to placebo (patients with COPD [2]; 1222.13/14, 10 μg): −0.337 units
Reduction in nighttime rescue bronchodilator use compared to placebo (patients with COPD [2]; 1222.13/14, 10 μg): −0.617 units
Reduction in daytime and nighttime rescue medication use relative to twice-daily formoterol (patients with COPD [2]; studies 1222.13, 1222.14, once-daily olodaterol): comparable to twice-daily formoterol
Adjusted Mean Endurance Time, Treatment Mean (SE) (patients with COPD [3]; study 1222.37, olodaterol 5 μg): 421.58 (13.459) Seconds
Endurance time increase compared with placebo (patients with COPD [3]; study 1222.37, olodaterol 5 μg): 14.0%
Adjusted Mean Endurance Time, Treatment Mean (SE) (patients with COPD [3]; [6]): 420.72 (13.602) Seconds
Endurance time increase compared with placebo (patients with COPD [3]; [6]): 13.8%
Adjusted Mean Endurance Time, Treatment Mean (SE) (patients with COPD [3]; study 1222.38, olodaterol 5 μg): 396.31 (13.680) Seconds
Endurance time increase compared with placebo (patients with COPD [3]; study 1222.38, olodaterol 5 μg): 11.8%
Adjusted Mean Endurance Time, Treatment Mean (SE) (patients with COPD [3]; [9]): 391.45 (13.566) Seconds
Endurance time increase compared with placebo (patients with COPD [3]; [9]): 10.5%
Adjusted Mean Inspiratory Capacity at Isotime During Exercise, Treatment mean (SE) (patients with COPD [4]; study 1222.37, olodaterol 5 μg): 2.099 (0.038) L
Inspiratory Capacity at Isotime, Mean (SE) compared to placebo (patients with COPD [4]; study 1222.37, olodaterol 5 μg): 0.182 (0.036) L
Inspiratory Capacity at Isotime, Mean (SE) compared to placebo (patients with COPD [4]; [5]): statistically significant increase
Adjusted Mean Inspiratory Capacity at Isotime During Exercise, Treatment mean (SE) (patients with COPD [4]; [6]): 2.091 (0.038) L
Inspiratory Capacity at Isotime, Mean (SE) compared to placebo (patients with COPD [4]; [6]): 0.174 (0.036) L
Inspiratory Capacity at Isotime, Mean (SE) compared to placebo (patients with COPD [4]; [7]): statistically significant increase
Adjusted Mean Inspiratory Capacity at Isotime During Exercise, Treatment mean (SE) (patients with COPD [4]; study 1222.38, olodaterol 5 μg): 2.246 (0.039) L
Inspiratory Capacity at Isotime, Mean (SE) compared to placebo (patients with COPD [4]; study 1222.38, olodaterol 5 μg): 0.084 (0.035) L
Inspiratory Capacity at Isotime, Mean (SE) compared to placebo (patients with COPD [4]; [8]): statistically significant increase
Adjusted Mean Inspiratory Capacity at Isotime During Exercise, Treatment mean (SE) (patients with COPD [4]; [9]): 2.328 (0.039) L
Inspiratory Capacity at Isotime, Mean (SE) compared to placebo (patients with COPD [4]; [9]): 0.166 (0.034) L
Inspiratory Capacity at Isotime, Mean (SE) compared to placebo (patients with COPD [4]; [10]): statistically significant increase
